Structures are written as SMILES.

Usually IC50 stands for the midpoint of a concentration-inhibition curve. Read a high IC50 as weaker potency in that assay.

This test deals with VEGFR2, unphosphorylated (Homo sapiens (Human), UniProt P35968). As to the kind of experiment: VEGFR ADP GLO Assay. It counts as biochemical. On the technique in general: In ADP-Glo the light output rises with the ADP produced.
Chain of VEGFR2, unphosphorylated (P35968 20-1356): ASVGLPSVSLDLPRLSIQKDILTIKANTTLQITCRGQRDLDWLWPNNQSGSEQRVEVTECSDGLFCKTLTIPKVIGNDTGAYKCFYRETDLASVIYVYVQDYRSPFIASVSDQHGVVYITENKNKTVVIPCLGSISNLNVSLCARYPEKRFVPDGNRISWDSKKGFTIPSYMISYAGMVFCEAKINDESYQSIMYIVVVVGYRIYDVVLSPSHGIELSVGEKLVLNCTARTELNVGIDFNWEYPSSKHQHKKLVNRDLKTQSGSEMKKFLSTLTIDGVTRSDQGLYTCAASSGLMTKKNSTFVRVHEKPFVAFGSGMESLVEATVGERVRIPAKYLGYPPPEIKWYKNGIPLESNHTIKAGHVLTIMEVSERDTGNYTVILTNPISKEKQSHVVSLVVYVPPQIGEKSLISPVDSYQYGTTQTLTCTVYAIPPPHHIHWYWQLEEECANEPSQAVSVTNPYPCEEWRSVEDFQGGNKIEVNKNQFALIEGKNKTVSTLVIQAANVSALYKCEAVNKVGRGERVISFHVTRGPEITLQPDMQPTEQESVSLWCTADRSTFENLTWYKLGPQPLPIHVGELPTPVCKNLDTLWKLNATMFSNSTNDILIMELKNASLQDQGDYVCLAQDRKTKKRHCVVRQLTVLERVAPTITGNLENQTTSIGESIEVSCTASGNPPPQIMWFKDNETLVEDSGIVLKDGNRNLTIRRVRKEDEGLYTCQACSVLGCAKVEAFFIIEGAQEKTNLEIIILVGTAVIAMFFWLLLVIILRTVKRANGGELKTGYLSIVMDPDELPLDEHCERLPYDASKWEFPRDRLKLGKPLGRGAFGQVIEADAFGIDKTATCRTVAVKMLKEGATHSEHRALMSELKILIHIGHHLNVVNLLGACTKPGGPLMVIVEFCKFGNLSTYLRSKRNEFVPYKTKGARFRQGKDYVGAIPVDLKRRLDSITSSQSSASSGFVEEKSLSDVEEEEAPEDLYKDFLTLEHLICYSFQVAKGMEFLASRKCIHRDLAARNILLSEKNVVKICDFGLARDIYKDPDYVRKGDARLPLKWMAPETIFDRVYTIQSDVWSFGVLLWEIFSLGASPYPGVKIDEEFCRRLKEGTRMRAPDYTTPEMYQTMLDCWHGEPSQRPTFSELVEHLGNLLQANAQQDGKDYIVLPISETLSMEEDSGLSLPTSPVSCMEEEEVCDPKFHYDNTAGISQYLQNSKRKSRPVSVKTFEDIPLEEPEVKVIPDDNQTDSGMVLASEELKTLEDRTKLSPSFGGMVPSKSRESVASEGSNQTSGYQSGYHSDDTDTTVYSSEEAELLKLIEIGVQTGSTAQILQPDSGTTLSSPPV
In turn, `Cc1ncc(C(=O)NCCN2CCCC2)cc1NC(=O)c1cnn2cc(-c3cnn(CC(O)CO)c3)sc12` (centres unmarked) [Example 225, 2-(1-(2,3-Dihydroxypropyl)-1H-pyrazol-4-yl)-N-(2-methyl-5-((2-(pyrrolidin-1-yl)ethyl)carbamoyl)pyridin-3-yl)pyrazolo[5,1-b]thiazole-7-carboxamide] came in with an IC50 above 7.5 µM.

Turning to `Cc1ncc(NC(=O)CN(C)C2CCOCC2)cc1NC(=O)c1cnn2cc(-c3cnn(C)c3)sc12` [Example 15, 2-(1-methyl-1H-pyrazol-4-yl)-N-(2-methyl-5-(2-(methyl(tetrahydro-2H-pyran-4-yl)amino)acetamido)pyridin-3-yl)pyrazolo[5,1-b]thiazole-7-carboxamide], the IC50 was above 7.5 µM.

With `Cc1ncc(NC(=O)CN2CCN(C)CC2)cc1NC(=O)c1cnn2cc(-c3cnn(C)c3)sc12` [Example 232, 2-(1-methyl-1H-pyrazol-4-yl)-N-(2-methyl-5-(2-(4-methylpiperazin-1-yl)acetamido)pyridin-3-yl)pyrazolo[5,1-b]thiazole-7-carboxamide], the IC50 is above 7.5 µM.

The compound `Cc1ncc(NC(=O)CN2CCC(F)(F)CC2)cc1NC(=O)c1cnn2cc(-c3cnn(C)c3)sc12` [Example 14, N-(5-(2-(4,4-difluoropiperidin-1-yl)acetamido)-2-methylpyridin-3-yl)-2-(1-methyl-1H-pyrazol-4-yl)pyrazolo[5,1-b]thiazole-7-carboxamide] gave an IC50 above 7.5 µM.

`Cc1ncc(NC(=O)OC[C@@H]2CCCN2C(C)C)cc1NC(=O)c1cnn2cc(-c3cnn(C)c3)sc12` [Example 245, (S)-(1-isopropylpyrrolidin-2-yl)methyl (6-methyl-5-(2-(1-methyl-1H-pyrazol-4-yl)pyrazolo[5,1-b]thiazole-7-carboxamido)pyridin-3-yl)carbamate] registered an IC50 above 7.5 µM.

In turn, `Cc1ncc(C(=O)NCCN2CCCC2(C)C)cc1NC(=O)c1cnn2cc(-n3ncc4cccnc43)sc12` [Example 217, N-(5-((2-(2,2-dimethylpyrrolidin-1-yl)ethyl)carbamoyl)-2-methylpyridin-3-yl)-2-(1H-pyrazolo[3,4-b]pyridin-1-yl)pyrazolo[5,1-b]thiazole-7-carboxamide] gave a concentration for half-maximal inhibition (IC50) above 7.5 µM.

Regarding `Cc1ncc(C(=O)NCCN2CCCC2)cc1NC(=O)c1cnn2cc(-c3cnn(C)c3)sc12` [Example 219, 2-(1-Methyl-1H-pyrazol-4-yl)-N-(2-methyl-5-((2-(pyrrolidin-1-yl)ethyl)carbamoyl)pyridin-3-yl)pyrazolo[5,1-b]thiazole-7-carboxamide], the 50% inhibitory concentration (IC50) was above 7.5 µM.

`Cc1ncc(C(=O)NCCN2CCCC2)cc1NC(=O)c1cnn2cc(-c3cn(C)nc3C)sc12` [Example 218, 2-(1,3-Dimethyl-1H-pyrazol-4-yl)-N-(2-methyl-5-((2-(pyrrolidin-1-yl)ethyl)carbamoyl)pyridin-3-yl)pyrazolo[5,1-b]thiazole-7-carboxamide]: the IC50 was above 7.5 µM.

`Cc1ncc(C(=O)NC[C@H]2CCCN2CCO)cc1NC(=O)c1cnn2cc(-c3cnn(C)c3)sc12` [Example 236, (R)—N-(5-(((1-(2-hydroxyethyl)pyrrolidin-2-yl)methyl)carbamoyl)-2-methylpyridin-3-yl)-2-(1-methyl-1H-pyrazol-4-yl)pyrazolo[5,1-b]thiazole-7-carboxamide] registered an IC50 above 2.5 µM.

Regarding `Cc1cc(C(=O)NCCN2CC3CCC2CC3)sc1NC(=O)c1cnn2cc(-c3cnn(C)c3)sc12` [Example 199, N-(5-((2-(2-azabicyclo[2.2.2]octan-2-yl)ethyl)carbamoyl)-3-methylthiophen-2-yl)-2-(1-methyl-1H-pyrazol-4-yl)pyrazolo[5,1-b]thiazole-7-carboxamide], the IC50 is above 7.5 µM.

As to `Cc1ncc(NC(=O)CCN2CCCC2(C)C)cc1NC(=O)c1cnn2cc(-c3cccc4c3cnn4C)sc12` [Example 241, N-(5-(3-(2,2-dimethylpyrrolidin-1-yl)propanamido)-2-methylpyridin-3-yl)-2-(1-methyl-1H-indazol-4-yl)pyrazolo[5,1-b]thiazole-7-carboxamide], the IC50 is above 2.5 µM.

For the origin of these results see patent US20240109917A1 (ACTELION PHARMACEUTICALS LTD, priority 2020, published 2024).
